From US10703746B2, “Mutant IDH1 inhibitors useful for treating cancer” (THE UNITED STATES OF AMERICA, AS REPRESENTED BY THE …, priority 2014, dated 2020) come the findings set out here.

Assay [1] has as its target IDH1 R132H (Homo sapiens, UniProt O75874, R132H). The assay can be described thus: IDH1 R132H enzymatic assay (NADPH depletion coupled to diaphorase/resazurin). The format is biochemical. The conditions noted are these: IDH1 R132H enzymatic inhibition, IC50 class. The procedure: (§1) Assays were conducted in a 1536-well black solid-bottom plate with a final assay volume of 9 μL.
Specifically, for IDH1 R132H, 3 μL of enzyme (4 mM β-ME, 0.0005 mg/mL IDH1 R132H, 150 mM NaCl, 20 mM Tris pH 7.5, 10 mM MgCl2, 0.05% BSA) were added to the plate, followed by the addition of 23 nL of test compound in DMSO. The plate was lidded and incubated at room temperature for 30 minutes at which time 3 μL of substrate were added (0.016 mM NADPH, 2 mM α-KG, 150 mM NaCl, 20 mM Tris pH 7.5, 10 mM MgCl2, 0.05% BSA). This reaction was incubated at room-temperature for 60 minutes at which time the detection mix was added (0.06 mg/mL diaphorase, 0.036 mM resazurin, 150 mM NaCl, 20 mM Tris pH 7.5, 10 mM MgCl2, 0.05% BSA). […]
(In general: Resazurin is reduced to fluorescent resorufin, in cell work by metabolically active cells.)

The target of assay [2] is IDH1 R132C (Homo sapiens, UniProt O75874, R132C). The assay can be described thus: IDH1 R132C enzymatic assay (NADPH depletion coupled to diaphorase/resazurin). The format is biochemical. The conditions noted are these: IDH1 R132C enzymatic inhibition, IC50 class. The procedure: as §1
For IDH1 R132C, 3 μL of enzyme (0.00032 mg/mL IDH1 […], 10% glycerol, 50 mM potassium phosphate pH 6.5, 5 mM MgCl2, 0.03% BSA) were added to the plate, followed by the addition of 23 nL of test compound in DMSO. The plate was lidded and incubated at room temperature for 30 minutes at which time 3 μL of substrate were added (0.012 mM NADPH, 0.6 mM α-KG, 10% glycerol, 50 mM potassium phosphate pH 6.5, 5 mM MgCl2, 0.03% BSA). […]

IDH1 R132H, sequence (O75874 whole entry R132H): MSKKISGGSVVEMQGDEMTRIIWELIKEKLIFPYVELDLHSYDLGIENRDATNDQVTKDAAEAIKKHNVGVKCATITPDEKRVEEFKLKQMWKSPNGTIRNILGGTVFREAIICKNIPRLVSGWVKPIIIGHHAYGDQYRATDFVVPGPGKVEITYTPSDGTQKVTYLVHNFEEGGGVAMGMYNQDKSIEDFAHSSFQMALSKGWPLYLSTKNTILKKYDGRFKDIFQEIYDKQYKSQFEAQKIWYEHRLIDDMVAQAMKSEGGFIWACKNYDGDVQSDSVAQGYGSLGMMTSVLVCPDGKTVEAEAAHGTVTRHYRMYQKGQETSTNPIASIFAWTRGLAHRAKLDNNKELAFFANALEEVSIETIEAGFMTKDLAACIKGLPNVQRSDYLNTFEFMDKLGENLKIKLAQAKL
IDH1 R132C, sequence (O75874 whole entry R132C): as the sequence (O75874 whole entry R132H) above, with H132C counted along it

For `CCc1cccc(CC)c1-n1c(C)c(C(=O)NC2CCCC(N)C2)cc(-c2nc(-c3ccc(Cl)cc3)cs2)c1=O` (mixture of isomers) [Compound 126], the 50% inhibitory concentration (IC50) (commonly the concentration that gives 50% inhibition) in assay [1] lay within 5 to 20 µM; in assay [2] it was 1 to 5 µM.

Turning to `CC1(C)CC(=O)c2cc(-c3nc(-c4ccc(Cl)cc4)cs3)c(=O)n(-c3ccccc3OCc3ccccc3)c2C1` [Compound 1], the IC50 in assay [1] is over 20 µM; in assay [2], 0.3 to 1 µM.

For the compound `CCc1cccc(CC)c1-n1c(CC(C)C)c(C(=O)N2CCN[C@H](C(=O)OC)C2)cc(-c2nc(-c3ccc(Cl)cc3)cs2)c1=O` [Compound 2], the IC50 was in the range of 1 to 5 µM in assay [1] and 0.3 to 1 µM in assay [2].

Consider `CCOC(=O)c1cc(-c2nc(-c3ccc(Cl)cc3)cs2)c(=O)n(-c2c(CC)cccc2CC)c1-c1ccccc1` [Compound 3], for which the IC50 in assay [1] and in assay [2] was over 20 µM throughout.

Regarding `CCc1cccc(CC)c1-n1c(CC(C)C)c(C(=O)NCCO)cc(-c2nc(-c3ccc(Cl)cc3)cs2)c1=O` [Compound 4], the 50% inhibitory concentration (IC50) is under 0.3 µM in assay [1] and 0.3 to 1 µM in assay [2].

`CC1(C)CC(=O)c2cc(-c3nc(-c4ccc(Cl)cc4)cs3)c(=O)n(-c3ccccc3CN)c2C1` [Compound 5]: the half-maximal inhibitory concentration (IC50) in assay [1] and in assay [2] was 5 to 20 µM each time.

In the case of `CCc1cccc(CC)c1-n1c(C)c(C(=O)NCCCN)cc(-c2nc(-c3ccc(Cl)cc3)cs2)c1=O` [Compound 6], the IC50 in assay [1] and in assay [2] was 1 to 5 µM each time.

For `CCc1cccc(CC)c1-n1c(C)c(C(=O)NC2CCCC2)cc(-c2nc(-c3ccc(Cl)cc3)cs2)c1=O` [Compound 7], the IC50 was over 20 µM in assay [1] and 1 to 5 µM in assay [2].

Consider `CCc1cccc(CC)c1-n1c(CC(C)C)c(C(=O)N2CCN[C@@H](CO)C2)cc(-c2nc(-c3ccc(Cl)cc3)cs2)c1=O` [Compound 8], for which the concentration for half-maximal inhibition (IC50) in assay [1] and in assay [2] was under 0.3 µM throughout.

`CC1(C)CC(=O)c2cc(-c3nc(-c4ccc(Cl)cc4)cs3)c(=O)n(-c3ccccc3OC(F)(F)F)c2C1` [Compound 9]: the half-inhibitory concentration (IC50) in assay [1] was in the range of 1 to 5 µM; in assay [2], 0.3 to 1 µM.

For the compound `CCc1cccc(CC)c1-n1c(CC(C)C)c(C(=O)N[C@H](CO)c2ccccc2)cc(-c2nc(-c3ccc(Cl)cc3)cs2)c1=O` [Compound 10], the values for the IC50 in assay [1] and in assay [2] were 0.3 to 1 µM and under 0.3 µM, respectively.

For `CC(c1ccccc1)n1c2c(cc(-c3nc(-c4ccc(Cl)cc4)cs3)c1=O)C(=O)CC(C)(C)C2` (stereo not shown) [Compound 11], the concentration for half-maximal inhibition (IC50) in assay [1] is over 20 µM; in assay [2], 5 to 20 µM.

Turning to `COc1ccccc1-n1c2c(cc(-c3nc(-c4ccc(Cl)cc4)cs3)c1=O)C(=O)CC(C)(C)C2` [Compound 12], the concentration for half-maximal inhibition (IC50) in assay [1] and in assay [2] was 1 to 5 µM in each case.

Take `Cc1noc(C)c1-n1c2c(cc(-c3nc(-c4ccc(Cl)cc4)cs3)c1=O)C(=O)CC(C)(C)C2` [Compound 13]: the half-maximal inhibitory concentration (IC50) in assay [1] is over 20 µM; in assay [2] it was 1 to 5 µM.

On to `CCc1cccc(CC)c1-n1c(CC(C)C)c(C(=O)O)cc(-c2nc(-c3ccc(Cl)cc3)cs2)c1=O` [Compound 14], for which the values for the IC50 in assay [1] and in assay [2] were 1 to 5 µM and 5 to 20 µM, respectively.

As to `CCc1cccc(CC)c1-n1c(C)c(C(=O)NCCNC)cc(-c2nc(-c3ccc(Cl)cc3)cs2)c1=O` [Compound 15], the concentration for half-maximal inhibition (IC50) in assay [1] is 1 to 5 µM; in assay [2], under 0.3 µM.

In the case of `CCc1cccc(CC)c1-n1c(C)c(C(=O)N2CCN[C@H](CO)C2)cc(-c2nc(-c3ccc(Cl)cc3)cs2)c1=O` [Compound 16], the IC50 in assay [1] was in the range of 1 to 5 µM; in assay [2], 0.3 to 1 µM.

Regarding `Cc1cccc(CN2CCN(C)CC2)c1-n1c2c(cc(-c3nc(-c4ccc(Cl)cc4)cs3)c1=O)C(=O)CC(C)(C)C2` [Compound 17], the IC50 in assay [1] and in assay [2] was 5 to 20 µM each time.

As for `CCc1cccc(CC)c1-n1c(C)c(C(=O)NC2CCCC(O)C2)cc(-c2nc(-c3ccc(Cl)cc3)cs2)c1=O` (stereo not shown) [Compound 18], the results for the 50% inhibitory concentration (IC50) in assay [1] and in assay [2] were 5 to 20 µM and 1 to 5 µM, respectively.

Take `CC1(C)CC(=O)c2cc(-c3nc(-c4ccc(Cl)cc4)cs3)c(=O)n(C3CCCc4ccccc43)c2C1` (stereo not shown) [Compound 19]: the figures for the IC50 in assay [1] and in assay [2] were over 20 µM and 0.3 to 1 µM, respectively.
